Ends that are not written are not given here.
Columns and labels:
Assay type in all cases: in vivo
breast cancer (4T1) = assay: Breast cancer subcutaneous allograft mouse model; details: 4T1 allograft mice
prostate cancer (22Rv1) = assay: Prostate cancer subcutaneous allograft mouse model; details: 22Rv1 allograft mice
ZDF diabetic rats = assay: Blood sugar in ZDF diabetic rats after 6 days of treatment; details: IV daily for 6 days; MOTS-c 1 mg per 400 gram rat
Method: FIG. 33 describes Day 6 fasting blood sugars. ZDF diabetic rats were followed until their blood sugar was […], at which point treatment was initiated with one of two doses of MOTS-c or insulin, given IV at 8 AM for 6 days. 6 rats per group were used. Fasting blood sugars were measured after 6-days. ANOVA and student t-tests were used for analysis and p-values.
FIG. 34 describes absolute change in blood glucose at Day 6. In the same experiment described in FIG. 33, absolute changes in blood glucose are shown.

Substance	toxicity as reflected by body weight maintenance (breast cancer (4T1))	toxicity as reflected by body weight maintenance (prostate cancer (22Rv1))	absolute change in blood glucose at Day 6 (ZDF diabetic rats)
MRWQEMGYIFYPRKLR [MOTS3, MRWQEMGYIFYPRKLR]	not toxic	not toxic	–
insulin: insulin given IV daily for 6 days as comparator in ZDF diabetic rats	–	–	stabilize their blood sugar at levels similar to baseline
